Source: patent US6440405B1, “Quaternary ammonium functionalized dendrimers and methods of use therefor” (priority 1999, dated 2002)

Key:
[1] = system: Staphylococcus aureus; settings: reported results; cited from earlier work
[2] = system: recombinant E. coli strain TV 1048; assay: Bioluminescence method (light-off response) with recombinant E. coli strain TV 1048; type: cell-based; settings: at 5 min; by interpolation of bioluminescence against concentration curves

CCCCCCCCCCCC[N+](C)(C)C.[Cl-] [DTAC, n-dodecyltrimethyl ammonium chloride]
effectiveness against S. aureus compared with D4ClNC12 (in words) [1]: Somewhat less effective
EC50 (concentration causing a 50% reduction of the bioluminescence) [2]: about 2000 ppm
